Data taken from PubChem BioAssay (NCI).
Values joined by “and” are separate entries in the source; they are usually repeats but may differ in a detail not shown here. Equal entries are not always repeated.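 Exposure lasted 48 hours, with cells grown in 96-well plates and compounds tested at five concentrations. GI50 = concentration required for 50% inhibition of growth. TGI denotes the concentration required for complete inhibition of growth.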

Assays:
Test in all cases: DTP human tumour cell line panel, 48 h
M14 melanoma = system: M14 melanoma
MALME-3M melanoma = system: MALME-3M melanoma
MDA-MB-231 breast = system: MDA-MB-231 breast
MOLT-4 leukemia = system: MOLT-4 leukemia
OVCAR-3 ovarian = system: OVCAR-3 ovarian
RPMI-8226 leukemia = system: RPMI-8226 leukemia
SF-295 CNS = system: SF-295 CNS
SK-MEL-2 melanoma = system: SK-MEL-2 melanoma
SNB-19 CNS = system: SNB-19 CNS
TK-10 renal = system: TK-10 renal

Structure (SMILES)	TGI (M14 melanoma) [µM]	TGI (MALME-3M melanoma)	TGI (MDA-MB-231 breast)	TGI (MOLT-4 leukemia)	TGI (OVCAR-3 ovarian)	TGI (RPMI-8226 leukemia)	TGI (SF-295 CNS)	TGI (SK-MEL-2 melanoma)	TGI (SNB-19 CNS)	TGI (TK-10 renal)	GI50 (M14 melanoma) [µM]	GI50 (MALME-3M melanoma)	GI50 (MDA-MB-231 breast)	GI50 (MOLT-4 leukemia) [µM]	GI50 (OVCAR-3 ovarian)	GI50 (RPMI-8226 leukemia)	GI50 (SF-295 CNS)	GI50 (SK-MEL-2 melanoma)	GI50 (SNB-19 CNS)	GI50 (TK-10 renal)
O=C1C=C(Nc2nc(C(=O)O)cc(=O)[nH]2)c2ccccc2C1=O	> 100	> 100 µM	> 100 µM	> 100 µM	> 100 µM	> 100 µM	> 100 µM	> 100 µM	> 100 µM	> 100 µM	–	–	–	–	–	–	–	–	–	–
CCCCc1nc2cc(/C=C/C(=O)NO)ccc2n1CCN(CC)CC	5.32	22.2 µM	5.43 µM	> 88.8 µM	1.83 µM	> 100 µM	1.23 µM	0.506 µM	12.2 µM	0.598 µM	0.358	0.153 µM	0.485 µM	0.384	0.363 µM	0.176 µM	0.26 µM	0.153 µM	0.593 µM	0.116 µM
COC(=O)[C@H](Cc1ccccc1)NC(=O)[C@@H](OC)[C@@H]1Cc2cc3cc(OC4CC(OC5CC(O)C(O)C(C)O5)C(O)C(C)O4)c(C)c(O)c3c(O)c2C(=O)[C@H]1OC1CC(OC2CC(OC3CC(C)(O)C(O)C(C)O3)C(O)C(C)O2)C(O)C(C)O1 (stereo partly drawn)	0.105	0.0287 µM	9.09 µM	0.161 µM	0.0793 µM	0.073 µM	1.7 µM	0.0707 µM	> 14.3 µM	> 14.3 µM	0.0267	0.00693 µM	0.0305 µM	0.017	0.0142 µM	0.0109 µM	0.025 µM	0.0173 µM	0.0173 µM	0.0439 µM
CC(C)(C)c1nnc2n(c1=O)N=CC(c1ccc(Br)cc1)S2 (stereo not drawn)	63.1	79.7 µM	48.1 µM	> 100 µM	70.8 µM	> 100 µM	58.9 µM	66.1 µM	> 100 µM	> 100 µM	24.4	26.9 µM	24.5 µM	31.5	21.8 µM	25.6 µM	12.1 µM	25.3 µM	51.3 µM	34.7 µM
CC(C)(C)n1cc(-c2ccnc(NCCNS(=O)(=O)c3cccc4ccccc34)c2)c(-c2cccc(F)c2)n1	48.2	36.8 µM	> 100 µM	> 100 µM	30.4 µM	44.9 µM	57.3 µM	57.9 µM	> 100 µM	40.5 µM	11.7	15.3 µM	24.2 µM	10	15.4 µM	6.2 µM	22.3 µM	21.4 µM	34.9 µM	18.3 µM
Cc1[nH]nc(C(=O)Nc2n[nH]c3ccccc23)c1[N+](=O)[O-]	> 100	> 100 µM	> 100 µM	97.7 µM	> 100 µM	> 100 µM	> 100 µM	> 100 µM	> 100 µM	> 100 µM	> 96.2	> 100 µM	> 100 µM	> 62.5	> 100 µM	> 71.5 µM	> 100 µM	> 100 µM	> 100 µM	> 100 µM
O=[N+]([O-])c1ccc2c(c1)S(=O)c1ccccc1-2 (stereo not drawn)	> 100	> 100 µM	> 100 µM	> 100 µM	> 100 µM	> 100 µM	> 100 µM	> 100 µM	> 100 µM	> 100 µM	–	–	–	–	–	–	–	–	–	–
C=C1CO[C@@H]2C[C@@H]1CCC1(C)OC1CC/C(C)=C/CC[C@@]2(C)O (stereo partly drawn)	> 100	> 100 µM	36.1 µM	39.1 µM	33 µM	44.5 µM	44.7 µM	> 84.6 µM	> 100 µM	> 100 µM	44.1	48.8 µM	14.9 µM	17.1	16.9 µM	16.2 µM	18.4 µM	43.2 µM	> 85.9 µM	> 100 µM
CC(C)[C@@H](CS(=O)(=O)C(C)C)N1C(=O)[C@@](C)(CC(=O)O)C[C@H](c2cccc(Cl)c2)[C@H]1c1ccc(Cl)cc1	59.6	6.91 µM	39.2 µM	11.1 µM	33 µM	53 µM	33.2 µM	42.1 µM	66.5 µM	97 µM	14.1	0.178 µM	18.3 µM	0.338	12.4 µM	15 µM	9.09 µM	17.6 µM	14.6 µM	28.2 µM
COc1cccc2c1C(=O)c1c(O)c3c(c(O)c1C2=O)C[C@@](O)(/C(C)=N\O)C[C@@H]3OC1CC(N)C(O)C(C)O1 (stereo partly drawn)	6.78	2.41 µM	7.17 µM	1.55 µM	8.58 µM	8.33 µM	7.84 µM	2.48 µM	8.93 µM	37.2 µM	–	–	–	–	–	–	–	–	–	–
CC(C)c1ccc(O)c(=O)cc1	40.6	> 72 µM and 66.6 µM	–	> 44.8 µM and 6.22 µM	> 100 µM and 18.3 µM	> 80.5 µM	> 100 µM	39 µM	> 71.4 µM	> 100 µM	16.3	19.9 µM	13.4 µM	2.16	2.03 µM	6.35 µM	7.57 µM	34.5 µM	15.3 µM	39.7 µM
CCOC(=O)c1cnc2c(cnn2CC)c1NN=C(C)C	> 100	> 100 µM	> 100 µM	> 100 µM	> 100 µM	> 100 µM	> 100 µM	> 100 µM	> 100 µM	> 100 µM	> 100	> 100 µM	45.1 µM	64.7	39.5 µM	74.2 µM	27.6 µM	53.5 µM	32.6 µM	27.1 µM
OC(C(=Nc1ccccc1)c1ccccc1)c1ccccc1 (stereo not drawn)	39.1	7.01 µM	39.3 µM	55.1 µM	14.3 µM	71.1 µM	26.3 µM	6.47 µM	31.6 µM	9.53 µM	–	–	–	–	–	–	–	–	–	–
CC(C)(CCC(C)(C)c1ccccc1)c1ccccc1	52.7	30 µM	31.5 µM	41.4 µM	31 µM	36.1 µM	31.6 µM	31.5 µM	33.7 µM	46.4 µM	–	–	–	–	–	–	–	–	–	–
c1ccc2c(c1)ccc1c3ccccc3ccc21	> 50	> 50 µM	> 50 µM	> 50 µM	> 50 µM	> 50 µM	–	> 50 µM	> 50 µM	> 50 µM	> 50	> 50 µM	> 50 µM	> 50	> 50 µM	> 50 µM	–	> 50 µM	> 50 µM	> 50 µM
CC1(C)CC[C@]2(C(=O)O)CC[C@]3(C)[C@H](CC[C@@H]4[C@@]5(C)CCC(=O)C(C)(C)[C@@H]5CC[C@]43C)[C@H]2[C@H]1OC(=O)C(F)(F)F	27	30.7 µM	31.4 µM	22.5 µM	26.4 µM	30.9 µM	30.1 µM	30.9 µM	27.9 µM	31.8 µM	8.34	12.9 µM	13.5 µM	4.22	12.4 µM	4.82 µM	14.6 µM	14.1 µM	13.8 µM	16.9 µM
CN1CCN(c2cc(Nc3cc(C4CC4)[nH]n3)nc(Nc3ccc(CC(=O)NCc4cccc(F)c4)cc3)n2)CC1	2.41	4.55 µM	6.16 µM	19.8 µM	16.5 µM	6.52 µM	10.3 µM	9.32 µM	23.4 µM	16.1 µM	0.752	0.496 µM	0.451 µM	0.248	1.59 µM	2 µM	1.99 µM	1.99 µM	2.25 µM	2.92 µM
COc1cc2c3c(n(CCCNCCN4CCOCC4)c(=O)c2cc1OC)-c1cc2c(cc1C3=O)OCO2	–	14.5 µM and 27.3 µM	5.72 µM	19.7 µM	1.4 µM and 3.27 µM	1.14 µM and 0.681 µM	2.13 µM and 1.55 µM	14.7 µM and 19.7 µM	50 µM and > 55.2 µM	14.8 µM and 23.5 µM	–	6.5 µM and 8.31 µM	2.18 µM	< 0.005	0.528 µM and 0.6 µM	0.122 µM and 0.0199 µM	< 0.005 µM and 0.0343 µM	7.78 µM and 3.92 µM	2.23 µM and 0.77 µM	7.2 µM and 7.5 µM
COc1ccc(Nc2c[nH]c(=O)[nH]c2=O)cc1	> 100	> 100 µM	> 100 µM	> 100 µM	> 100 µM	> 100 µM	> 100 µM	> 100 µM	> 100 µM	> 100 µM	–	–	–	–	–	–	–	–	–	–
Cc1ccccc1NC(=O)c1sc2nc3c(cc2c1N)C(=O)CCC3	> 100	> 100 µM	> 100 µM	> 100 µM	4.45 µM	> 100 µM	> 100 µM	> 100 µM	> 100 µM	> 100 µM	2.27	3.54 µM	3.98 µM	11.3	1.76 µM	5.29 µM	1.33 µM	0.548 µM	3.1 µM	4.05 µM
CC(C)CC(=O)CC(O)C(Cl)(Cl)Cl (stereo not drawn)	> 100	> 100 µM	> 100 µM	> 100 µM	> 100 µM	> 100 µM	> 100 µM	> 100 µM	> 100 µM	> 100 µM	–	–	–	–	–	–	–	–	–	–
COc1ccc(-c2nn(-c3cccc(NC(=O)Nc4cccc(C(F)(F)F)c4)c3)cc2-c2ccncc2)cc1Cl	4.62	8.72 µM	19.8 µM	8.38 µM	–	4.54 µM	7.32 µM	5.23 µM	> 100 µM	> 100 µM	1.63	2.07 µM	2.18 µM	1.76	–	1.02 µM	1.69 µM	2.37 µM	3.85 µM	4.1 µM
N#Cc1ccc2oc3ccc(C#N)cc3c(=O)c2c1	> 100	50.8 µM	> 100 µM	46.9 µM	–	62.4 µM	47.1 µM	37.4 µM	64.8 µM	73.4 µM	–	–	–	–	–	–	–	–	–	–
COc1cc(/C=C/C(=O)c2cc(OC)c(OC)c(OC)c2)cc(OC)c1OC	12.7	19.6 µM	> 100 µM	48.6 µM	4.21 µM	19.4 µM	7.85 µM	–	27.3 µM	59.2 µM	2.82	2.48 µM	6.89 µM	2.8	1.91 µM	2.56 µM	2.18 µM	–	11 µM	4.42 µM
C=C1C(=O)O[C@H]2[C@H]1CC/C(COC(=O)C(=O)c1cn(C)c3ccc(OC)cc13)=C\CC[C@@]1(C)O[C@@H]21	8.27	9.91 µM	10.6 µM	16 µM	3.42 µM	19.5 µM	21.8 µM	–	21.8 µM	13.2 µM	3.22	5.62 µM	4.39 µM	3.65	1.86 µM	2.34 µM	9.35 µM	–	9.07 µM	4.79 µM
CC(=O)OC1=C2C(CC3C4CC=C5CC(OC(C)=O)CCC5(C)C4CCC23C)C2C(=O)N(Cc3ccccc3)C(=O)C2C1 (stereo not drawn)	75.3	> 100 µM	72.7 µM	8.37 µM	12 µM	9.82 µM	> 100 µM	–	> 100 µM	> 100 µM	7.77	10.5 µM	11.1 µM	2.93	3.31 µM	2.78 µM	10.8 µM	–	9.22 µM	47.4 µM
COc1ccc(Cn2cc(Cn3c(=O)c(-c4nc5ccccc5[nH]4)cc4ccccc43)nn2)c(OC)c1OC	–	0.985 µM and 2.8 µM	1.54 µM and 3.07 µM	> 100 µM	0.633 µM and 1.19 µM	1.15 µM	1.19 µM and 1.94 µM	2.21 µM	> 100 µM	–	–	0.139 µM and 0.42 µM	0.292 µM and 0.451 µM	0.468	0.165 µM and 0.292 µM	0.129 µM	0.239 µM and 0.324 µM	0.676 µM	0.423 µM	0.572 µM and 1.02 µM
